Reference: patent US5444082A, “3,9-disubstituted-spiro(5.5)undecanes active on the cardiovascular system, process for their preparation and pharmaceutical composition containing same” (Sigma-Tau Industrie Farmaceutiche Riunite S.p.A., priority 1992, dated 1995)

Assays:
[1] = target: T1, Na^+,K^+ -ATPase (Homo sapiens, UniProt P05023); experiment: displacement of the specific 3H-ouabain binding from the purified Na+,K+-ATPase receptor; settings: read-out: Binding ^3 H-Ouab. Displacement log. IC50 (converted)
T1 construct: receptor purified according to Jorgensen (Jorgensen P., BBA, 1974,356, 36); from tissue
Source text: (§1) To test the affinity for the receptor site of the Na^+,K^+ -ATPase and the agonist or antagonist activity on the enzyme, the following tests are used: a) displacement of the specific 3-Houabain binding from the Na^+,K^+ -ATPase receptor purified according to Jorgensen (Jorgensen P., BBA, 1974,356, 36) and Erdmann (L. Brown and E. Erdmann., Arzneim. Forsh., 1984, 34 (II), 1314); b) inhibition of the activity of the purified Na^+,K^+ -ATPase measured as % of hydrolysis of ^32 P-ATP in presence and in absence of the tested compound (F. Noel and Godfraind., Biochem. Pharmacol., 1984, 33, 47).

[2] = target: T1, Na^+,K^+ -ATPase; experiment: inhibition of the activity of the purified Na+,K+-ATPase, measured as % of hydrolysis of 32P-ATP; assay type: biochemical; settings: read-out: Inhibitory Activity log IC50 (converted)
Source text: as §1

| Structure (SMILES) | IC50 [1] | IC50 [2] |
| --- | --- | --- |
| C(=CC1CCC2(CC1)CCC(OCCN1CCCC1)CC2)c1ccoc1 (mixture of isomers) [Comp. I-a, (EZ)-9-(2(N-Pyrrolidinyl)ethoxy)-3-(2-(3-furyl)vinyl)-spiro[5.5]undecane] | 79.4 µM | 25.1 µM |
| C1CCN(CCOC2CCC3(CCC(CCC4CCOC4)CC3)CC2)C1 (racemic) [Comp. 1-i, (RS)-9-(2-(N-Pyrrolidinyl)ethoxy)-3-(2-(3-(RS)-tetra-hydrofuryl)ethyl)-spiro[5.5]undecane] | 100 µM | 100 µM |
| NCCSCC1CCC2(CC1)CCC(Cc1ccoc1)CC2 (stereo not shown) [Comp. 1-be, 9-(2-Aminoethylthiomethyl)-3-(3-furyl)methyl-spiro[5.5]undecane] | 10 µM | 15.8 µM |
| O=C1OCC=C1CCC1CCC2(CC1)CCC(OCCN1CCCC1)CC2 (stereo not shown) [Comp. 1-bg, 9-(2-(N-pyrrolidinyl)ethoxy)-3-(2-(2-oxo-[5H]-3-furyl)ethyl)-spiro[5.5]undecane] | 100 µM | 100 µM |
| OC1(Cc2ccoc2)CCC2(CCC(COCCN3CCCC3)CC2)CC1 (stereo not shown) [Comp. I-ab, 9-(2-(N-Pyrrolidinyl)ethoxy)methyl-3-(3-furyl)meth-yl-3-hydroxy-spiro[5.5]undecane] | 15.8 µM | 15.8 µM |
| N=C(N)NN=C1CCC2(CC1)CCC(CO)CC2 (stereo not shown) [Comp. I-ay, 9-Hydroxymethyl-3-guanidinoimino-spiro[5.5]undecane] | 25.1 µM | 100 µM |
| N=C(N)NN=CC1CCC2(CCC(O)CC2)CC1 (stereo not shown) [Comp. I-az, 9-Hydroxy-3-guanidinoiminomethyl-spirol[5.5]undecane] | 15.8 µM | 63.1 µM |
| c1cc(CC2CCC3(CCC(CSCCN4CCCC4)CC3)CC2)co1 (stereo not shown) [Comp. I-bf, 9-(2-(N-Pyrrolidinyl)ethyl-thiomethyl)-3-(3-furyl)methyl-spiro[5.5]undecane] | 39.8 µM | 100 µM |
| O=C1C=C(CCC2CCC3(CC2)CCC(OCCN2CCCC2)CC3)CO1 (stereo not shown) [Comp. I-bh, 9-(2-(N-Pyrrolidinyl)ethoxy)-3-(2-(2-oxo-[5H]-4-furyl)-ethyl)-spiro[5.5]undecane] | 63.1 µM | 100 µM |
| c1cc(CCC2CCC3(CC2)CCC(OCCN2CCCC2)CC3)co1 (stereo not shown) [Comp. I-g, 9-(2-(N-Pyrrolidinyl)ethoxy)-3-(2-(3-furyl)ethyl)-spiro[5.5]undecane] | 12.6 µM | 15.8 µM |
| c1cncc(CCC2CCC3(CC2)CCC(OCCN2CCCC2)CC3)c1 (stereo not shown) [Comp. I-h, 9-(2-(N-Pyrrolidinyl)ethoxy)-3-(2-(3-pyridyl)ethyl)-spiro[5.5]undecane] | 25.1 µM | 100 µM |
| c1cc(CC2CCC3(CCC(COCCN4CCCC4)CC3)CC2)co1 (stereo not shown) [Comp. I-j, 9-(2-(N-Pyrrolidinyl)ethoxy)methyl-3-(3-furyl)methyl-spiro[5.5]undecane] | 7.94 µM | 50.1 µM |
| c1cc(CCC2CCC3(CC2)CCC(OCCCN2CCCC2)CC3)co1 (stereo not shown) [Comp. I-m] | 31.6 µM | 50.1 µM |
| c1cc(CC2CCC3(CCC(COCCCN4CCCC4)CC3)CC2)co1 (stereo not shown) [Comp. I-r, 9-(3-(N-Pyrrolidinyl)propoxy)methyl-3-(3-furyl)-methyl-spiro[5.5]undecane] | 31.6 µM | 12.6 µM |
| OC(COC1CCC2(CCC(CCc3ccoc3)CC2)CC1)CN1CCCC1 (stereo not shown) [Comp. I-t, 9-(3-(N-Pyrrolidinyl)-2-hydroxypropoxy)-3-(2-(3-furyl)ethyl)-spiro[5.5]undecane] | 100 µM | 50.1 µM |
| NC(CO)COC1CCC2(CCC(CCc3ccoc3)CC2)CC1 (stereo not shown) [Comp. I-u, 9-(2-Amino-3-hydroxypropoxy)-3-(2-(3-furyl)ethyl)-spiro[5.5]undecane] | 50.1 µM | 50.1 µM |
| OC1(CCc2ccoc2)CCC2(CCC(OCCN3CCCC3)CC2)CC1 (stereo not shown) [Comp. I-x, 9.(2-(N-pyrrolidinyl)ethoxy)-3-(2-(3-furyl)ethyl)-3-hydroxy-spiro[5.5]undecane] | 100 µM | 100 µM |
